Tests used:
[1] = SIF buffer solubility panel (FaSSIF, FeSSIF, FaSSGF); type: physicochemical; settings: 37° C., up to 24 h (timepoints t=0, 1 h, 3 h, 6 h, 24 h)
[2] = Solubility determinations in SIF buffers FaSSIF, FeSSIF, FaSSGF (Example 8, Experiment 5)
Outline: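 Suspensions in FaSSIF, FeSSIF or FaSSGF held at 37° C for 24 h, sampled at set time points and centrifuged. Pellets checked by XRPD, wet and dried, for form change.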

[3] = Equilibrium humidity evaluation 75% RH/40° C., 10 days (Example 8, Experiment 6); type: physicochemical
Procedure: The experimental procedure that accompany this experiment is provided in Section G.ii.
All forms were maintained under constant equilibrium humidity (75% RH). XRPD, DSC, TGA, PLM and ^1H NMR analyses were performed on the absorbents at t=5 d and t=10 d, to confirm their physical fates and to determine the extent of residual solvent exchange or sequestration.
100 mg portions of Tabernanthalog salts ([…]) were placed in the relevant open vials. The powders were finely divided and distributed evenly over the base of the vial, such that equal material coverage across the panel was observed. These samples were then maintained 40° C. under 75% RH. The samples were sub-sampled at intervals of 5 and 10 days and analyzed by ^1H NMR, HPLC, XRPD, DSC, TGA and PLM, for evidence of phase change or chemical degradation.

[4] = Dynamic vapour sorption (DVS) of selected salts (Example 8); type: physicochemical; settings: 0 to 90 to 0% RH, 25° C., dm/dt 0.002%/min
Procedure: DVS: The moisture sorption properties of the feed API were analyzed by DVS Intrinsic instrument (Surface Measurement System). Approximately 20-50 mg of API was weighed on an aluminum pan and loaded into the instrument equilibrated at 25° C. The sample was allowed to equilibrate under dry atmosphere (0% relative humidity) for 60 minutes before increasing the humidity from 0% to 30% at 5% step increment and from 30% to 90% at 10% step increment. A desorption cycle was also applied from 90% to 30% (10% step) and from 30% to 0% (5% decrement). A rate of change in mass per time unit (dm/dt) of 0.002%/min was set as the equilibrium parameter. Kinetic and isotherm graphs were calculated.

[5] = Amorphous study (freeze drying, evaporation, spray drying, bead milling) of monofumarate and sorbate; type: physicochemical; settings: 50 mg
Description: The purpose of this study was to generate amorphous material to be characterized and used in water activity studies. To achieve this, the two salts were exposed to a variety of techniques in attempts to generate the amorphous forms, including freeze drying, evaporation, vacuum desiccation and cryodesiccation spray drying. These techniques were not successful for the two salts Tabernanthalog·Monofumarate and Tabernanthalog·Sorbate.
Bead milling was attempted to generate the amorphous form of Tabernanthalog·Sorbate (Tabernanthalog·Sorbate, Form A). The salt underwent neat milling and separately with the addition of tetradecafluorohexane (TDFH). The following experiments were performed: Experiment 6-Sample A1 (30 Hz, 2 h), Experiment 6-Sample A2 (30 Hz, 5.5 h) and Experiment 6-Sample A3 (30 Hz 1 h, TDFH), the products from each experiment was analysed by XRPD to determine the extent of crystallinity (FIG. 812). None of the experiments provided amorphous material.
Each salt was charged to a 7 ml vial (50 mg, 1.0 wt). To the vial containing Tabernanthalog·Monofumarate (Tabernanthalog·Monofumarate), was charged water (10.0 vol), to fully dissolve the sample. Tabernanthalog·Sorbate (A1270-076-A1) was taken-up in ethanol/water (15% v/v, 10 vol), a further charge of water (1.0 ml), was added to ensure that the sample dissolved.
Vials containing the salt solutions were placed on the freeze drier apparatus overnight, and the cryo-desiccated products were recovered the following morning and analysed by XRPD each product remained crystalline.
Tabernanthalog·Monofumarate (A1272−082-A2, 51.1 mg, 1.0 wt) was charged to a 7 ml scintillation vial followed by THE (2 ml, […]), the suspension was heated to 50° C., until full dissolution was observed. The vial was stoppered by foil and a pin hole was pierced in the top. The vial was located under a steady N2 stream.
Tabernanthalog·Sorbate (A1270−076-A1, 99.4 mg, 1.0 wt) was charged to a 7 ml scintillation vial, followed by hexafluoroisopropanol (HFIPA, 5.0 vol, 0.5 ml), after which, the sample fully dissolved. The cap was replaced by foil and pierced on the top. Solvent was allowed to evaporate, to afford a dry, brown solid that was analysed by XRPD yielding crystalline pattern #7. Sample were dried under N2 stream for 5 h and reanalysed by XRPD, remaining as pattern #7
Tabernanthalog·Sorbate (A1270−076-A1, 50.0 mg, 1.0 wt) was charged to a 7 ml scintillation vial followed by hexafluoroisopropanol (HFIPA, 0.5 ml, 10 vol), to yield a clear solution. The solution was concentrated to dryness, by rotary evaporation, yielding an oil, that was allowed to stand undisturbed overnight.
Tabernanthalog·Sorbate (A1270−076-A1, 50.0 mg, 1.0 wt) was charged to a 7 ml scintillation vial, followed by methanol (300 μl, 6.0 vol). The solution was clarified by filtration into a 7 ml scintillation vial, containing diethyl ether (1.0 ml, 20.0 vol).
Tabernanthalog·Sorbate (A1270−076-A1, 102 mg, 1 wt) was charged to a 7.0 ml scintillation vial followed by methanol (1.9 ml, 19.0 vol). The solution was loaded into the spray drier apparatus.
The procedure yielded a brown powder (30 mg, 30% th.).
Tabernanthalog·Sorbate (A1270-076-A1, Form A) was charged to a 1.5 ml steel milling-vessel with a single 5 mm ball bearing. The sample was milled for 5.5 h at 30 Hz and yielded an off-white powder, that was analysed by XRPD, no change in crystallinity.

[6] = Thermal study: glass transition temperature (Tg) of amorphous monofumarate and sorbate; type: physicochemical
Procedure: Each salt was analysed by DSC and TGA to determine the Tg of the amorphous form. Amorphous forms were generated by thermocycling the salt past the melt temperature, cooling the sample, and once cooled the samples were reheated. Open pan and sealed pan DSC were utilised, open pan DSC were heated past the melt event, cooled, and left to stand under ambient conditions overnight.
Sealed pans were immediately cycled with no time left to stand.
TGA (open pan) samples were analysed by thermocycle, with no time for the sample to stand under ambient conditions.
The amorphous forms were generated in these studies and characterised with their Tg being measured.
A hot stage microscope heating block was used to generate the amorphous phase in-situ, to allow analysis by XRPD. A silicon XRPD sample plate was loaded with the appropriate salt. The plate was heated past the melt event, removed from the hot stage microscope block and cooled to ambient in air and analysed by XRPD to ensure that the amorphous form was generated. The amorphous material was then analysed by ^1H NMR and LC-MS to ensure there was no change in chemical composition.
Two DSC pans were charge with the appropriate salt (Tabernanthalog·Sorbate, A1270−076-A1 and Tabernanthalog·Monofumarate, Tabernanthalog·Monofumarate), the first DSC pan was not sealed (open pan DSC), the second was sealed (hermetic sealed pan DSC). The open pan DSC was cycled from 20° C. to just after the melt event for each, cooled to −20° C. and left to stand under ambient conditions over night. The open pan DSC was then heated to just before the thermal degradation event (Tabernanthalog·Sorbate ca. 160° C., Tabernanthalog·Monofumarate ca. 210° C.) The hermetic sealed DSC was heated from 20° C. to just after the melt event, cooled to −20° C. then headed to just before the same degradation event.
Two TGA crucibles were charged with the appropriate salt (Tabemanthalog·Sorbate, A1270-076-A1, Tabernanthalog·Monofumarate, Tabernanthalog·Monofumarate), both were thermocycled from 20° C. to past the melt event and then cooled to −20° C., each pan was then immediately heated to just before the degradation event to measure the Tg event.

[7] = DVS 0 to 90 to 0% RH (mass equilibrated); type: physicochemical
[8] = each timepoint up to 24 h, 37° C.
[9] = Amorphisation activity: Crash cool
[10] = Amorphisation activity: Freeze dry

COc1ccc2c3c([nH]c2c1)CCN(C)CC3.O=C(O)c1ccccc1 [tabernanthalog benzoate salt]
solubility in FaSSGF [1]: all dissolved except the tabernanthalog benzoate salt | solubility in FaSSIF [1]: all dissolved except the tabernanthalog benzoate salt | solubility in FeSSIF [1]: all dissolved except the tabernanthalog benzoate salt | behaviour at 30 mg/ml in SIF buffers ([2]; FaSSIF, FeSSIF, FaSSGF, 37° C., 24 h): precipitated in all three SIF buffers | stability of the suspended phase in FaSSIF (XRPD of pellet) [2, 8]: stable and did not disproportionate in FaSSIF | stability of the suspended phase in FeSSIF (XRPD of pellet) [2, 8]: stable and did not disproportionate in FeSSIF | decrease in chemical purity of wet pellets in FaSSIF ([2]; over the time points up to 24 h): ca. 1.22 % area | fate of the suspended phase in FaSSGF (XRPD, 1H NMR) ([2]; up to 24 h, 37° C.): consistent with benzoic acid | change in chemical purity (trended HPLC) ([3]; 75% RH/40° C., after 10 days): did not decrease significantly | water uptake / hydrate formation (TGA, DSC) ([3]; 75% RH/40° C., t=5 d and t=10 d): no significant water uptake | powder diffraction pattern versus input (form stability) ([3]; 75% RH/40° C., t=5 days and t=10 days): consistent with the input | Tabernanthalog RRT = 1.00 (trended HPLC data, chemical purity) ([3]; Benzoate salt, input before humidity exposure): 98.56 | DVS sorption/desorption isotherm [4]: slightly hygroscopic

COc1ccc2c3c([nH]c2c1)CCN(C)CC3.O=C(O)/C=C/C(=O)O [Tabernanthalog•Monofumarate]
Form by XRPD [5, 9]: Pattern #3 | Outcome [5, 9]: Crystalline | Form by XRPD [5, 10]: Pattern #1 | Outcome [5, 10]: Crystalline | Form by XRPD ([5]; Amorphisation activity: THF/N2): Pattern #11 | Outcome ([5]; Amorphisation activity: THF/N2): Crystalline | Outcome ([6]; Hot plate heat up, sorbate 20 to 170 ° C., monofumarate 20 to 210 ° C.): Amorphous | Outcome ([6]; Hot stage plate heat up, sorbate 20 to 170 ° C., monofumarate 20 to 210 ° C.): Almost Amorphous | Outcome ([6]; Open Pan DSC, sorbate 20 to 165 to −20, O/N 20 to 230 ° C., monofumarate 20 to 210 to −20, O/N 20 to 210 ° C.): Amorphous | Outcome ([6]; Sealed DSC, sorbate 20 to 165 to −20 to 230 ° C., monofumarate 20 to 210 to −20 to 210 ° C.): Amorphous | Outcome ([6]; TGA, sorbate 20 to 165 to −20 to 230 ° C., monofumarate 20 to 210 to −20 to 210 ° C.): Amorphous | Glass temperature (Tgs) ([6]; amorphous form generated in situ, sealed DSC thermocycle (Sample B1)): 63 °C

COc1ccc2c3c([nH]c2c1)CCN(C)CC3 [Pattern #6a (Form A)]
DVS 0 to 90 to 0% RH (dm/dt <0.002%) ([7]; desorption, 0.0% RH): 0.0381% | DVS 0 to 90 to 0% RH (dm/dt <0.002%) ([7]; desorption, 5.0% RH): 0.1179% | DVS 0 to 90 to 0% RH (dm/dt <0.002%) ([7]; desorption, 10.0% RH): 0.1551% | DVS 0 to 90 to 0% RH (dm/dt <0.002%) ([7]; desorption, 15.0% RH): 0.1857% | DVS 0 to 90 to 0% RH (dm/dt <0.002%) ([7]; desorption, 20.0% RH): 0.2126% | DVS 0 to 90 to 0% RH (dm/dt <0.002%) ([7]; desorption, 25.0% RH): 0.2387% | DVS 0 to 90 to 0% RH (dm/dt <0.002%) ([7]; desorption, 30.0% RH): 0.2656% | DVS 0 to 90 to 0% RH (dm/dt <0.002%) ([7]; desorption, 40.0% RH): 0.3210% | DVS 0 to 90 to 0% RH (dm/dt <0.002%) ([7]; desorption, 50.0% RH): 0.3797% | DVS 0 to 90 to 0% RH (dm/dt <0.002%) ([7]; desorption, 60.0% RH): 0.4515% | DVS 0 to 90 to 0% RH (dm/dt <0.002%) ([7]; desorption, 70.0% RH): 0.5442% | DVS 0 to 90 to 0% RH (dm/dt <0.002%) ([7]; desorption, 80.0% RH): 0.6827% | DVS 0 to 90 to 0% RH (dm/dt <0.002%) ([7]; desorption, 90.0% RH): 0.9766% | DVS 0 to 90 to 0% RH (dm/dt <0.002%) ([7]; sorption, 0.0% RH): 0.0004% | DVS 0 to 90 to 0% RH (dm/dt <0.002%) ([7]; sorption, 5.0% RH): 0.0627% | DVS 0 to 90 to 0% RH (dm/dt <0.002%) ([7]; sorption, 10.0% RH): 0.0957% | DVS 0 to 90 to 0% RH (dm/dt <0.002%) ([7]; sorption, 15.0% RH): 0.1397% | DVS 0 to 90 to 0% RH (dm/dt <0.002%) ([7]; sorption, 20.0% RH): 0.1778% | DVS 0 to 90 to 0% RH (dm/dt <0.002%) ([7]; sorption, 25.0% RH): 0.2093% | DVS 0 to 90 to 0% RH (dm/dt <0.002%) ([7]; sorption, 30.0% RH): 0.2401% | DVS 0 to 90 to 0% RH (dm/dt <0.002%) ([7]; sorption, 40.0% RH): 0.3145% | DVS 0 to 90 to 0% RH (dm/dt <0.002%) ([7]; sorption, 50.0% RH): 0.4051% | DVS 0 to 90 to 0% RH (dm/dt <0.002%) ([7]; sorption, 70.0% RH): 0.5451% | DVS 0 to 90 to 0% RH (dm/dt <0.002%) ([7]; sorption, 80.0% RH): 0.6660% | DVS 0 to 90 to 0% RH (dm/dt <0.002%) ([7]; sorption, 90.0% RH): 0.9766% | solubility in FaSSGF [1]: soluble | solubility in FaSSIF [1]: soluble | solubility in FeSSIF [1]: soluble
